# Assay results: patent US10526339B2, “Substituted glucosepanes and compositions thereof” (YALE UNIVERSITY, priority 2015, dated 2020)
# How the values were obtained:
# [1] = Glucosepane pKa study (UV pH titration)
# Description: The inventors next took advantage of glucospane's intrinsic spectral properties to measure the pKa of the iso-imidazole core.
# [2] = EXSY NOESY conformational exchange (E/Z isomerization); assay type: physicochemical
# Description: With synthetic glucosepane (5) in hand, we next investigated its structural features using multidimensional NMR techniques. […] Indeed, although the original glucosepane isolation report did note the possibility of E/Z isomerism in acyclic 2-amino imidazoles, the presence of these exchange peaks in the case of glucosepane have previously been incorrectly attributed to stereoisomerism at the C-8a stereocenter.^(35) Using an EXSY (EXchange SpectroscopY) NOESY sequence,^(34) the inventors were able to calculate an approximate rate for this conformational exchange process on the order of 3 s^−1 in D2O.^28
# The integral ratios and tm were used to calculate an approximate rate by the following formula:^5
# [formula] Xa=mole fraction of conformer A Xb=mole fraction of conformer B Iaa=integral intensity for diagonal peak (conformer A) Ibb=integral intensity for diagonal peak (conformer B) Iab and Iba=integral intensity for cross-peak Sample calculation with the data provided above: […]
# [3] = Hydrogen/deuterium exchange at C-8a in D2O; assay type: physicochemical; conditions: basic conditions (aqueous NaOD), either epimer
Compound,pKa [1],"approximate rate of conformational exchange (E/Z isomerization about exocyclic C2-N bond) ([2]; in D2O, EXSY NOESY) [s⁻¹]",time for quantitative hydrogen/deuterium exchange at the C-8a H-atom [3] [min],"k ([2]; sample calculation from 2D NOESY integrals, tm 1.00 sec) [s⁻¹]"
"N[C@@H](CCCCN1C[C@@H](O)[C@@H](O)C[C@@H]2N=C(NCCC[C@H](N)C(=O)O)N=C21)C(=O)O (stereo in doubt) [Compound 5, Glucosepane Tris-Trifluoroacetate]",~12,~3,< 60,–
"N[C@@H](CCCCN1C[C@@H](O)[C@@H](O)C[C@@H]2N=C(NCCC[C@H](N)C(=O)O)N=C21)C(=O)O [Compound 5, Glucosepane Tris-Trifluoroacetate]",–,–,–,2.89
